Test results published in US20130225611A1, “Compositions and Methods for Reducing Cancer Cell Proliferation and Modulating Importin-Beta Function” (THE REGENTS OF THE UNIVERSITY OF CALIFORNIA, priority 2011, published 2013).

How the values were obtained:
importin-β = target: T1, importin-β (Homo sapiens, UniProt Q14974); assay: fluorescent thermal shift assay (Sypro Orange), importin-β; type: binding; details: 2 μM importin-β, 50 μM compound
T1 construct: made in house; host or cells: BL21 cells (E. coli)
T1 sequence (Q14974 whole entry): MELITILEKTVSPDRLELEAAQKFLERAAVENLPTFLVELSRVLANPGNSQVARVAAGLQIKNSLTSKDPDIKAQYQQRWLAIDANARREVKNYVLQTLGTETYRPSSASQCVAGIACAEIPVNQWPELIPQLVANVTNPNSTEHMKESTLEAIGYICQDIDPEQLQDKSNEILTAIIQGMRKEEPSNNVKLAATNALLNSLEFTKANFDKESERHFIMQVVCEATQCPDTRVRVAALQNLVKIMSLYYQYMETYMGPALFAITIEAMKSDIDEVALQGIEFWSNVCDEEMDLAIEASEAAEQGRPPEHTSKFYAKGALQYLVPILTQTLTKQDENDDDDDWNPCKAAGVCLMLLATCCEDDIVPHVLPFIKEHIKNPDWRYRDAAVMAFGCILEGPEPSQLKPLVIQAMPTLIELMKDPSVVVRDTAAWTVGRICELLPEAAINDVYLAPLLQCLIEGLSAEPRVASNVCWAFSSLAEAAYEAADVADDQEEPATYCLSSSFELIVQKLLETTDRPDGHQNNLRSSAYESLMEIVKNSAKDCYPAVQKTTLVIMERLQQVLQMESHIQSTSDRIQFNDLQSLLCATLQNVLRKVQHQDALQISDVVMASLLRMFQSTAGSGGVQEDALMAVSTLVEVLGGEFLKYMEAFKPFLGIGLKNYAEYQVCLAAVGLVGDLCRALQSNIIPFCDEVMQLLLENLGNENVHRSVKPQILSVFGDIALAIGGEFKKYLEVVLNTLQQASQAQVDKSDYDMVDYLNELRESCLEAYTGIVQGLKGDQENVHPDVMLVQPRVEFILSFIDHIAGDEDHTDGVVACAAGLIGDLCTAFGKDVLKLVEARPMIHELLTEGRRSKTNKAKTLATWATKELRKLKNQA
Description: (§1) Experiments were performed using Applied Biosystems StepOnePlus™ Real-Time polymerase chain reaction (RT-PCR) System. Protein stocks were diluted in PBS and added 70% v/v to a Microamp® Fast 96-well Reaction Plate and maintained on ice. Compounds (importazole and control compound 3016) were then added at 30% v/v in 3% DMSO. Freshly prepared 100× water based-dilution of Sypro® Orange Protein Gel Stain was then added at 1% v/v to reach a final reaction volume of 20 μl. Samples were mixed by gentle pipetting. After sealing the plates with Microamp™ Optical Adhesive Film, the plate was subjected to a heating cycle composed of a 10 sec prewarming step at 25° C. and a gradient between 25° C. and 95° C. with a 0.3° C. ramp. Data was analyzed using the StepOnePlus™ Software v2.1.

HeLa cells [1] = assay: mitotic spindle defects in HeLa cells (tubulin and DNA staining); type: cell-based, human; details: HeLa cells treated for one hour
Description: To examine the consequences of importazole on mitosis, HeLa cells treated for one hour were fixed and stained for tubulin and chromosomes. […] Spindle positioning was not previously attributed to the Ran pathway and this phenotype may be a consequence of astral microtubule disruption by importazole.
Cells were fixed in 4% formaldehyde and 0.1% glutaraldehyde in PHEM (60 mM PIPES, 25 mM HEPES, 10 mM EGTA, 2 mM MgSO4) at 37° C. for 15 minutes followed by permeabilization with 0.1% triton X-100 for 2 minutes at room temperature. Cells were then washed and blocked (PHEM+5% FBS+0.2% saponin) and stained by standard techniques using the E7-A anti β tubulin antibody (Developmental Studies Hybridoma Bank) diluted 1:1000 and Hoechst dye.

RanGTP = target: T2, RanGTP (Homo sapiens, UniProt P62826, Q69L); assay: fluorescent thermal shift assay (Sypro Orange), RanGTP (RanQ69L); type: binding; details: 2 μM RanQ69L, 50 μM importazole
T2 construct: made in house; host or cells: SG13 cells (E. coli)
Description: as §1

HeLa cells [2] = assay: HeLa cell viability assay (CellTiter-Glo); type: cell-based; details: Homo sapiens, treatment over a 24-hour period
Description: For HeLa cell viability assays to obtain an IC50, 10,000 actively growing HeLa cells per well were transferred to opaque white 96 well tissue culture plates at a final volume of 100 μl per well in DMEM plus 4% fetal bovine serum and 1% penicillin/streptomycin. Cells were allowed to grow at 37° C. for 24 hours. Individual wells were then treated for 12 hours with one of the following conditions: 1% DMSO, 5, 10, 20, 30, 40, 50, 60, 75, 100 μM IPZ. Following this treatment, the media was replaced and cells were treated for another 12 hours under the same conditions. The plates were then allowed to equilibrate to room temperature for 30 min, after which 100 μl of room temperature CellTiter-Glo reagent from the Promega CellTiter-Glo Luminescent Cell Viability Assay kit was added to each well. Plates were shaken for 2 min, incubated at room temperature for 10 min, then read on a luminometer. The average background signal for the plate was subtracted from the value of each individual well, and the resulting values were normalized to the signal level of the DMSO containing well.

bovine tubulin = assay: pure tubulin polymerization and pelleting assay; type: biochemical; details: 25 μM bovine tubulin, 5% DMSO, pelleting, SDS PAGE
Description: Xenopus laevis egg extracts were prepared as described by Hannak et al. (2006) Nat. Protoc. 1:2305-2314. For in vitro spindle assembly, Xenopus laevis sperm DNA was added to egg extracts supplemented with rhodamine-labeled tubulin. Asters were formed by addition of 5% DMSO. DNA was stained with Hoechst dye. The formation of microtubule-based structures was assessed using epifluorescence microscopy after a 30-minute room temperature incubation. In vitro microtubule polymerization and pelleting assays were performed by incubating 25 μM bovine tubulin, 1 mM GTP, and 5% DMSO in BRB80 buffer (80 mM PIPES, 1 mM MgCl2, 1 mM EGTA, pH 6.8) at 37° C. for 30 minutes. Polymerized microtubules were pelleted through a sucrose cushion, resuspended, and analyzed by SDS PAGE.

CRM1 = target: T3, CRM1 (Homo sapiens, UniProt O14980); assay: fluorescent thermal shift assay (Sypro Orange), CRM1; type: binding; details: 2 μM protein, 50 μM importazole
T3 construct: made in house; host or cells: SG13 cells (E. coli)
T3 sequence (O14980 whole entry, species assumed): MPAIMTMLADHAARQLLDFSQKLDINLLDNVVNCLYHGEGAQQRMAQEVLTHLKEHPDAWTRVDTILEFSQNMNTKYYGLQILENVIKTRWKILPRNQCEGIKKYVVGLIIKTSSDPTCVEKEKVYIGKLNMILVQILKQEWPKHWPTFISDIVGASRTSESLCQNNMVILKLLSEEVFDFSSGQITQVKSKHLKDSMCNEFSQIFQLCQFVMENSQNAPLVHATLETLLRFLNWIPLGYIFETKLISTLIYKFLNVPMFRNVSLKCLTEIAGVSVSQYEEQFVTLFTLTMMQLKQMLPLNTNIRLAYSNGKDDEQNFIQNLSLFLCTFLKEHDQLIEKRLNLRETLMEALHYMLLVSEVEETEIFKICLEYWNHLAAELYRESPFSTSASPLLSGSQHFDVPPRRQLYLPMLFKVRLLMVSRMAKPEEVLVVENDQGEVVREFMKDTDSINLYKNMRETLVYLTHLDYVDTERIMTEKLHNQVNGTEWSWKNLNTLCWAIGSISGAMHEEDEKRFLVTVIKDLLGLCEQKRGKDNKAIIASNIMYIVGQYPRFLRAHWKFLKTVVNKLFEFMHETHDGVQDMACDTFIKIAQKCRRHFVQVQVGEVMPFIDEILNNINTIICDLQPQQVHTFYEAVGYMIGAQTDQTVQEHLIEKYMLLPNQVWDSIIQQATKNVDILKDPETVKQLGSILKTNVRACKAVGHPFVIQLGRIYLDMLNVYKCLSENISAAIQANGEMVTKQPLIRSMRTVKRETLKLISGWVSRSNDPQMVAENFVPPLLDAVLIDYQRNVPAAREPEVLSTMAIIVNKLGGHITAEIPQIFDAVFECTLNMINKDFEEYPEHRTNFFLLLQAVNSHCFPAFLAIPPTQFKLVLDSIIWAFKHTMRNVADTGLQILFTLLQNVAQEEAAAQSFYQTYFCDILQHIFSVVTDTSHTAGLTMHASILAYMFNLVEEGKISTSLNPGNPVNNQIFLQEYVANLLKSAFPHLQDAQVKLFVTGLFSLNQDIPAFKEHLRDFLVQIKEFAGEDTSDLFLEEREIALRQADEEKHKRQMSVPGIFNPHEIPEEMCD
Description: as §1

[3] = target: T4, CFP-Ran and YFP-importin-β (Homo sapiens, UniProt Q14974); assay: pull-down of CFP-Ran with S-tagged YFP-importin-β; type: binding; details: importazole 200 μM
T4 construct: made in house; host or cells: BL21 cells (E. coli)
Description: For pulldown experiments to detect interaction between CFP-Ran and YFP-importin-β, all reactions were performed in buffer consisting of PBS+2 mM MgCl2, 5% glycerol, 0.01% NP-40, and 1.0 mM DTT. Reaction buffer was combined with the following components in this order: CFP-Ran, RCC1, BSA, GDP or GTP, importazole or 100% DMSO, and YFP-importin-β, yielding the following final concentrations: CFP-Ran: 2.5 nM, RCC1: 20 nM, BSA: 0.1 mg/ml, GDP or GTP: 200 μM, importazole: 200 μM, […]: 5.0 nM. Reactions were incubated for 10 min at room temperature, […] of S-protein agarose was added, and then incubated for an additional 30 min on a rotator before pelleting the agarose at 3,000 rpm for 1 min. The supernatant was removed followed by three washes with […] reaction buffer. The S-protein pellet was resuspended in 15 μl of sodium dodecyl sulfate-polyacrylamide gel electrophoresis (SDS PAGE) sample buffer and boiled briefly. After spinning down the S-protein pellet, 10 μl of the sample was analyzed by SDS PAGE.

reduction of melting temperature of importin-β (importin-β): 1.72+/−0.27 °C
IC50 (HeLa cells [2]): ~22.5 µM
SMILES: CC(Nc1nc(N2CCCC2)nc2ccccc12)c1ccccc1 (centres unmarked) [importazole, (1-phenyl-ethyl)-(2-pyrrolidin-1-yl-quinazolin-4-yl)-amine]
cells displaying off-center spindles (HeLa cells [1]): more than 40%
defects in spindle assembly, chromosome alignment and spindle size (HeLa cells [1]; 0 to 40 μM): dose-dependent defects
effect on melting curve of RanGTP (RanGTP): did not significantly affect the melting curves
polymerization of pure microtubules (bovine tubulin): does not Affect Pure Microtubules
effect on melting curve of CRM1 (CRM1): did not significantly affect the melting curves
effect on binding of CFP-RanGTP and YFP-importin-β in pull-down assays [3]: did not obviously affect the binding of the two proteins
